In ChEMBL document CHEMBL3045122, “Synthesis, in vitro antimicrobial, antiproliferative, and QSAR studies of N-(substituted phenyl)-2/4-(1H-indol-3-ylazo)-benzamides” (Med Chem Res, 2013):

How the values were obtained:
Bacillus subtilis [1] = assay: Antibacterial activity against Bacillus subtilis assessed as growth inhibition after 24 hr by tube dilution method; type: functional
Staphylococcus aureus [2] = assay: Antibacterial activity against Staphylococcus aureus assessed as growth inhibition after 24 hr by tube dilution method; type: functional
Escherichia coli [3] = assay: Bactericidal activity against Escherichia coli; type: functional
Candida albicans [4] = assay: Fungicidal activity against Candida albicans; type: functional
Escherichia coli [5] = assay: Ratio of MBC to MIC for Escherichia coli; type: functional
Candida albicans [6] = assay: Ratio of MFC to MIC for Candida albicans; type: functional
Bacillus subtilis [7] = assay: Ratio of MBC to MIC for Bacillus subtilis; type: functional
Aspergillus niger [8] = assay: Fungicidal activity against Aspergillus niger; type: functional
Staphylococcus aureus [9] = assay: Ratio of MBC to MIC for Staphylococcus aureus; type: functional
Staphylococcus aureus [10] = assay: Bactericidal activity against Staphylococcus aureus; type: functional
Aspergillus niger [11] = assay: Ratio of MFC to MIC for Aspergillus niger; type: functional
Candida albicans [12] = assay: Antifungal activity against Candida albicans assessed as growth inhibition after 48 hr by tube dilution method; type: functional
Bacillus subtilis [13] = assay: Bactericidal activity against Bacillus subtilis; type: functional
Escherichia coli [14] = assay: Antibacterial activity against Escherichia coli assessed as growth inhibition after 24 hr by tube dilution method; type: functional
HCT-116 = assay: Cytotoxicity against Homo sapiens (human) HCT116 cells assessed as growth inhibition after 72 hr by MTT assay; type: functional, cell-based
Aspergillus niger [15] = assay: Antifungal activity against Aspergillus niger assessed as growth inhibition after 7 days by tube dilution method; type: functional
MCF7 = assay: Cytotoxicity against Homo sapiens (human) MCF7 cells assessed as growth inhibition after 72 hr by MTT assay; type: functional, cell-based
P388 = assay: Cytotoxicity against Mus musculus (mouse) P388 cells assessed as growth inhibition after 72 hr by MTT assay; type: functional, cell-based

| Structure (SMILES) | -logMIC (Bacillus subtilis [1]) | -logMIC (Staphylococcus aureus [2]) | MBC (Escherichia coli [3]) [uM/ml] | MFC (Candida albicans [4]) [uM/ml] | Ratio (Escherichia coli [5]) | Ratio (Candida albicans [6]) | Ratio (Bacillus subtilis [7]) | MFC (Aspergillus niger [8]) [uM/ml] | Ratio (Staphylococcus aureus [9]) | MBC (Staphylococcus aureus [10]) [uM/ml] | Ratio (Aspergillus niger [11]) | -logMIC (Candida albicans [12]) | MBC (Bacillus subtilis [13]) [uM/ml] | -logMIC (Escherichia coli [14]) | IC50 (HCT-116) [uM/ml] | -logMIC (Aspergillus niger [15]) | IC50 (MCF7) [uM/ml] | IC50 (P388) [uM/ml] |
| --- | --- | --- | --- | --- | --- | --- | --- | --- | --- | --- | --- | --- | --- | --- | --- | --- | --- | --- |
| O=C(Nc1ccccc1Cl)c1ccccc1/N=N\c1c[nH]c2ccccc12 | 1.48 | 1.18 | >0.13 | >0.13 | 3 | 3 | 3 | 0.03 | 3 | >0.13 | 3 | 1.48 | >0.13 | 1.48 | 0.24 | 1.48 | 0.1067 |  |
| O=C(Nc1cccc(Cl)c1)c1ccccc1/N=N\c1c[nH]c2ccccc12 | 1.48 | 1.18 | >0.13 | >0.13 | 3 | 3 | 3 | 0.03 | 3 | >0.13 | 3 | 1.48 | >0.13 | 1.78 | 0.2933 | 1.48 | 0.1067 |  |
| O=C(Nc1ccc(Cl)cc1)c1ccccc1/N=N\c1c[nH]c2ccccc12 | 1.48 | 1.18 | >0.13 | >0.13 | 3 | 3 | 3 | 0.03 | 3 | >0.13 | 3 | 1.48 | >0.13 | 1.48 | 0.3467 | 1.48 | 0.1067 |  |
| Cc1ccccc1NC(=O)c1ccccc1/N=N\c1c[nH]c2ccccc12 | 1.45 | 1.15 | >0.14 | >0.14 | 3 | 3 | 3 | 0.04 | 3 | >0.14 | 3 | 1.45 | >0.14 | 1.45 | 1.1299 | 1.45 | 0.1412 |  |
| O=C(Nc1ccccc1)c1ccccc1/N=N\c1c[nH]c2ccccc12 | 1.74 | 1.13 | >0.15 | >0.15 | 3 | 3 | 3 | 0.04 | 3 | >0.15 | 3 | 1.44 | >0.15 | 1.74 | 0.2353 | 1.44 | 0.0882 |  |
| Cc1ccc(NC(=O)c2ccccc2/N=N\c2c[nH]c3ccccc23)c(C)c1 | 1.47 | 1.17 | >0.14 | >0.14 | 3 | 3 | 3 | 0.03 | 3 | >0.14 | 3 | 1.47 | >0.14 | 1.47 | 0.0815 | 1.47 | 0.1087 |  |
| Cc1cccc(NC(=O)c2ccccc2/N=N\c2c[nH]c3ccccc23)c1 | 1.75 | 1.45 | >0.14 | >0.14 | 3 | 3 | 3 | 0.04 | 3 | >0.14 | 3 | 1.45 | >0.14 | 1.75 | 0.1695 | 1.45 | 0.1271 |  |
| Cc1ccc(NC(=O)c2ccccc2/N=N\c2c[nH]c3ccccc23)cc1 | 1.45 | 1.15 | >0.14 | >0.14 | 3 | 3 | 3 | 0.04 | 3 | >0.14 | 3 | 1.45 | >0.14 | 1.45 | 0.452 | 1.45 | 0.0791 |  |
| Cc1cccc(NC(=O)c2ccccc2/N=N\c2c[nH]c3ccccc23)c1C | 1.47 | 1.17 | >0.14 | >0.14 | 3 | 3 | 3 | 0.03 | 3 | >0.14 | 3 | 1.47 | >0.14 | 1.77 | 0.3533 | 1.47 | 0.1087 |  |
| Cc1ccc(C)c(NC(=O)c2ccccc2/N=N\c2c[nH]c3ccccc23)c1 | 1.77 | 1.17 | >0.14 | >0.14 | 3 | 3 | 3 | 0.03 | 3 | >0.14 | 3 | 1.47 | >0.14 | 1.47 | 0.163 | 1.47 | 0.1087 |  |
| O=C(Nc1ccccc1F)c1ccccc1/N=N\c1c[nH]c2ccccc12 | 1.46 | 1.16 | >0.14 | >0.14 | 3 | 3 | 3 | 0.03 | 3 | >0.14 | 3 | 1.46 | >0.14 | 1.76 | 0.2235 | 1.46 | 0.1397 |  |
| OC(Cn1cncn1)(Cn1cncn1)c1ccc(F)cc1F [FLUCONAZOLE] |  |  |  | 0.04 |  | 3 |  | 0.04 |  |  | 3 | 2.64 |  |  |  | 2.64 |  |  |
| O=c1[nH]cc(F)c(=O)[nH]1 [FLUOROURACIL] |  |  |  |  |  |  |  |  |  |  |  |  |  |  | 0.0462 |  | 0.0052 | 0.0219 |
| CCn1cc(C(=O)O)c(=O)c2cc(F)c(N3CCNCC3)cc21 [NORFLOXACIN] | 2.61 | 2.61 | 0.019 |  | 3 |  | 3 |  | 3 | 0.019 |  |  | 0.019 | 2.61 |  |  |  |  |
